This is an account of results in ChEMBL document CHEMBL1147326, “Goniotriol from Goniothalamus giganteus” (J Nat Prod, 1989).

Converted amounts (≈) assume the structure as drawn.

In one data set the test system is Artemia. In words: Toxicity in brine shrimp. The data set is classed as organism-based. As to conditions: in vivo.
A further data set deals with HT-29. In words: Cytotoxicity against human HT-29 cells. The data set is classed as functional. The settings on record: read-out: ED50 (the source's name).
Data set [1] relates to Agrobacterium tumefaciens. In words: Antitumor activity against Agrobacterium tumefaciens-induced crown gall tumors in potato tuber by potato disk test. The data set is classed as functional.
The test system of the next data set is A549. In words: Cytotoxicity against human A549 cells. As to conditions: read-out: ED50 (the source's name). Format: functional.
For a further data set, the system named is MCF7. Briefly: Cytotoxicity against human MCF7 cells. The settings on record: read-out: ED50 (the source's name). The data set is classed as functional.

As usually defined, the LC50 is the concentration lethal to half of the exposed cells or organisms. A lower LC50 goes with a more lethal substance. In the data set on Artemia, `O=C1C=C[C@H](O)[C@H]([C@H](O)[C@H](O)c2ccccc2)O1` [GONIOTRIOL] displayed an LC50 of 269 ppm. Besides, the EC50 is above 10 µg/mL in the data set with HT-29, above 10 µg/mL in the data set with A549 and 5.9 µg/mL (≈ 23.6 µM) in the data set on MCF7. In data set [1], the “inhibition (INH)” value is reported as 38%.
